Data from the METLIN SMRT retention time set (Domingo-Almenara et al. 2019).

Assay: gradient 5% acetonitrile 3 min, to 50% in 2 min, to 85% in 15 min, held 3 min, 100 µL/min
Conditions: column: Zorbax Extend-C18 2.1 x 50 mm; eluents: water / acetonitrile, 0.1% formic acid
Outline: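 Values are retention times taken from adduct peaks that software picked and an analyst inspected. The pure standards were run as mixtures of ~100 molecules on HPLC linked to a quadrupole time-of-flight mass spectrometer, in positive and negative ionization mode. A Zorbax Extend-C18 column (2.1 × 50 mm, 1.8 μm) was used at 100 μL/min with water and acetonitrile, each including 0.1% formic acid.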

Row | Compound | RP-LC retention time [s]
1 | CC1CN(CC(=O)NCc2ccc3c(c2)OCO3)c2ccccc2S1 (stereo unspecified) | 967
2 | Cc1cc(C)cc(NC(=O)Cn2c(=O)nc(N3CCC(C)CC3)c3ccccc32)c1 | 925
3 | CCOc1cc(=O)n2c(c1C(=O)NCCCN1CCCCC1)CCCCC2 | 568
4 | O=C(Nc1ccc(Br)cc1F)C1CCCN(c2nc3ccccc3nc2C(F)(F)F)C1 (stereo unspecified) | 1360
5 | COc1ccccc1Cc1nc(-c2cn(-c3cccc(F)c3)nn2)no1 | 1040
6 | CCC(C)NC(=O)Cn1nc2cc(C)nc(-c3ccc(C(F)(F)F)cc3)n2c1=O (stereo unspecified) | 661
7 | C=CCn1nnnc1SCC(=O)Nc1ccc(C(=O)OC)cc1 | 701
8 | COc1ccc2c(c1)Cc1sc(NC(=O)c3ccc(Br)cc3)nc1-2 | 1130
9 | CCOC(=O)c1nc(Nc2ccc(OC)c(Cl)c2)c2ccccc2n1 | 886
10 | CNC(=O)CCc1nc2ccccc2n(CC(=O)NC(C)CCc2ccccc2)c1=O (stereo unspecified) | 728
11 | CC(C)CCC(=O)N1CCC2(CC1)N(C)C(=O)CS2(=O)=O | 644
12 | CCn1nnc2ccc(-c3noc(C(C)NC(=O)c4ccccc4)n3)cc21 (stereo unspecified) | 689
13 | COc1ccccc1CC(=O)Nc1cccn2c(C3CCC3)nnc12 | 782
14 | CCN1CCN(C(=O)Cn2nc(C)c3sc(-c4ccccc4)nc3c2=O)CC1 | 604
15 | O=C(NCc1ccncc1)C1CCN(c2ncnc3c2oc2ccccc23)CC1 | 593
16 | Cc1nc(N2CCOCC2)c2c(C(=O)N3CCN(c4cc(Cl)ccc4C)CC3)c(C)oc2n1 | 983
17 | O=C(c1ccccc1OCC1CCCN(C2CCCCC2)C1)N1CCCCC1 (stereo unspecified) | 594
18 | CCN1C(=O)c2cccnc2Sc2cc(NC(=O)COc3ccccc3C)ccc21 | 860
19 | O=C(NCc1ccccc1)c1ccc(-c2cccs2)nc1 | 884
20 | COc1ccc(CCNC(=O)C2CC(=O)N(c3n[nH]c4ccccc34)C2)cc1OC (stereo unspecified) | 657
21 | CCCCCCCCCOc1ccc2[nH]cc(CCN)c2c1 | 996

Row | Compound | RP-LC retention time [s]
22 | CCc1noc(C2(NC(=O)c3ccc(Cl)cc3)CCCCC2)n1 | 1010
23 | COc1cc(-c2nc3ncccn3c2Nc2c(C)cccc2C)ccc1O | 683
24 | Cc1nc2ccccc2c(=O)n1Cc1noc(-c2ccc(C(F)(F)F)cc2)n1 | 987
25 | Cc1cccn2cc(C(=O)NCCC(C)C)nc12 | 712
26 | Cc1cc(NC(=O)CCn2cnc3ccccc3c2=O)sn1 | 619
27 | Cc1ccc(NC(=O)c2nc(C(C)C)oc2C)cc1F | 1140
28 | CCN1CCN(C(=O)Cn2c3ccccc3c3cnn(C)c(=O)c32)CC1 | 580
29 | O=C(Cc1ccc(F)cc1)NCCNc1cc(-n2cccn2)ncn1 | 652
30 | CC(C)CCNC(=O)c1ccc2c(c1)nc(Nc1n[nH]c3ccc(-c4ccccc4OC(F)(F)F)cc13)n2C1CCC(O)CC1 (stereo unspecified) | 957
31 | O=C(c1cc(Cc2n[nH]c(=O)c3ccccc23)ccc1F)N1CCN(C(=O)C2CC2)CC1 | 717
32 | Cc1cccc(NC(=O)Cn2nc(N3CCCC3)c3ccccc3c2=O)c1C | 927
33 | Cn1nc(-c2nnc(-c3ccccc3)o2)c2c1CCN(S(=O)(=O)c1cccc(C#N)c1)C2 | 884
34 | O=C(Nc1ccc2c(c1)OCCO2)c1c(O)c2cccnc2n(-c2ccc(F)cc2)c1=O | 1120
35 | Cc1cc(C)c(NC(=O)Cn2c(C)nc3onc(C)c3c2=O)c(C)c1 | 814
36 | Cc1cccc(Cl)c1NC(=O)CN1C(=O)NC2(CCC(C)CC2)C1=O (stereo unspecified) | 805
37 | CN1CCCCc2cc(C(=O)NCCN(C)C3CCCCC3)sc21 | 687
38 | Cc1noc(-c2nn(C)c3c2CN(C(=O)Nc2cccc(F)c2)CC3)n1 | 744
39 | Cn1cccc1CN(C(=O)C1CCC1)C1CC1 | 796
40 | Cc1cc(C(=O)Nc2ccc3c(c2)CCC(=O)N3)no1 | 637
41 | CC(NC(=O)c1cccc(NC(=O)c2ccco2)c1)C(=O)N1CCCc2ccccc21 (stereo unspecified) | 804
42 | CCc1cccc(N(C)C(N)=Nc2cccc3ccccc23)c1 | 846

Row | Compound | RP-LC retention time [s]
43 | COc1cc2c(cc1CNC(=O)c1ccc3c(c1)CC(C)O3)OCCCO2 (stereo unspecified) | 855
44 | CCCNC(=O)CC1CCN(C(=O)c2[nH]c(C)c(C)c2C)CC1 | 698
45 | Cn1cc(-c2nc(C(=O)Nc3ccc(C#N)cc3)cs2)c2cccnc21 | 958
46 | Cc1nn(C)cc1CN(C)C(=O)COc1ccc(NC(=O)C2CC2)cn1 | 604
47 | Cc1cc2nc(C)c(CCC(=O)O)c(C)n2n1 | 597
48 | CCOC(=O)c1cnc(Nc2nc(C)c3cc(C)cc(C)c3n2)nc1C | 657
49 | Cc1ccoc1C(=O)N1CCCn2ccnc2C1c1cnn(C)c1 (stereo unspecified) | 570
50 | Nc1nc(Cl)nc2c1ncn2[C@@H]1O[C@H](CO)[C@@H](O)[C@H]1O | 590
51 | Cc1ccc(N(C)S(=O)(=O)c2ccccc2-c2nc(-c3ccccc3)no2)cc1 | 1200
52 | Cc1cccc(Cn2nc(-c3nc(C)no3)ccc2=O)c1 | 789
53 | O=C(Nc1cccn2cnnc12)c1cnccn1 | 590
54 | CC(C)CNC(=O)N1CCCCC1c1nncn1-c1ccccc1 (stereo unspecified) | 683
55 | CCCC1c2nccn2CCCN1C(=O)c1cc(C2CC2)[nH]n1 (stereo unspecified) | 596
56 | O=C(Nc1ccccc1C(F)(F)F)N1CCN(c2nc3c(F)cc(F)cc3s2)CC1 | 942
57 | O=c1cc(-c2ccccc2)nc2n1CCN2Cc1ccncc1 | 589
58 | Cc1ccccc1CNC(=O)C1(C)Oc2cccnc2N(C(C)C)C1=O (stereo unspecified) | 978
59 | COCCn1cc(C(=O)Nc2ccc(Cl)cc2)c2nn(-c3ccccc3)c(=O)c-2c1 | 1050
60 | Cc1ccc(C)c(N2CCN(c3ccnc(SCC(=O)Nc4ccc(C(C)C)cc4)n3)CC2)c1 | 1060
61 | S=c1cc(N2CCSCC2)[nH]cn1 | 602
62 | O=C(Cn1nc(N2CCSCC2)c2ccccc2c1=O)Nc1ccc(Br)cc1F | 1060

Second part, the molecule after the results:

Row | RP-LC retention time [s] | Compound
63 | 656 | CCNC(=O)c1ncn2c1C(=O)N(C1CC1)C(C)(C(=O)NCc1ccccc1)C2 (stereo unspecified)
64 | 1000 | CCN1C(=O)CCc2cc(NS(=O)(=O)c3cccc(Cl)c3)ccc21
65 | 811 | Cc1ccc(NC(=O)N2CCC(n3cnc4cc(F)ccc4c3=O)CC2)c(C)c1
66 | 671 | O=C(Cn1c(=O)oc2ccccc21)NCC1CCN(C(=O)c2ccccc2F)CC1
67 | 824 | CCOc1ccc(N2CC(CNS(=O)(=O)c3ccccc3C(F)(F)F)CC2=O)cc1 (stereo unspecified)
68 | 584 | CCn1c(N2CCC(C(=O)N3CCN(c4ccccn4)CC3)CC2)cc(=O)n(C)c1=O
69 | 828 | CCn1c(=O)c(N2CCC(C(=O)NCCc3ccco3)CC2)nc2cccnc21
70 | 678 | CN1CCn2cc(S(=O)(=O)Nc3ccc(F)cc3)cc2C1=O
71 | 625 | CCN1CCc2nc(-c3ccc(F)cc3)n(CC(=O)N3CCCc4ccccc43)c(=O)c2C1
72 | 671 | CCCOc1nccnc1N1CCC(NC(=O)Cc2cccnc2)C1 (stereo unspecified)
73 | 904 | Cn1c(=O)c(N2CCC(NC(=O)Nc3ccccc3Cl)CC2)nc2ccccc21
74 | 726 | c1ccc(OCCC2CCN(Cc3ccc4[nH]ccc4c3)C2)cc1 (stereo unspecified)
75 | 967 | Cc1ccc(Cn2nc3c(S(=O)(=O)N4CCCCC4)cccn3c2=O)c(C)c1
76 | 1160 | Cc1nn(-c2ccc(-c3ccccc3)nn2)c(C)c1S(=O)(=O)N1CCC(C)CC1
77 | 664 | COc1ccc(S(=O)(=O)N2CCC(C(=O)Nc3ncnc4c3CCC4)CC2)cc1
78 | 578 | COCCNC(=O)C1CCN(c2nc3ccc(-c4cccnc4)nc3s2)CC1
79 | 907 | CCS(=O)(=O)c1nc2ccc(NS(=O)(=O)c3ccc(OC)c(Cl)c3)cc2s1
80 | 846 | CC(C)(C)c1csc(-c2csc(S(=O)(=O)NCCN3CCc4ccccc4C3)c2)n1
81 | 932 | Cc1nn2c(CNS(=O)(=O)c3ccc(Cl)cc3)c(-c3ccccc3)nc2s1
82 | 923 | CCOc1ccc(C(C)NC(=O)c2nnc(-c3ccc(S(=O)(=O)N(C)C)cc3)o2)cc1 (stereo unspecified)
83 | 710 | O=S(=O)(c1cccnc1)N1CC(c2nc(CCOCC3CCOCC3)no2)C1
84 | 650 | CN(CCCNC(=O)C1CCN(c2nc3ccccc3n(C)c2=O)CC1)C1CCCCC1
85 | 830 | O=C(NCC1CCCCC1)C1CCN(C(=O)c2ncn3c2COC(c2ccc(Cl)cc2)C3)CC1 (stereo unspecified)
86 | 665 | COc1ccc(NC(=O)c2cccc(N3CCNC(c4ccccc4)C3)n2)cc1 (stereo unspecified)
87 | 702 | Cc1ccc(-c2nc3n(CC(=O)NC4CC4)c4c(c(=O)n3n2)CCC4)cc1
88 | 863 | CCOc1ccc(CNC(=O)c2cn3cc(Cl)ccc3n2)cc1
89 | 953 | O=C(CN1C(=O)CCCc2cc(S(=O)(=O)N3CCCCCC3)ccc21)Nc1ccccc1F
90 | 1270 | CCCOc1nc2ccccc2nc1N1CCCC(C(=O)NCc2ccccc2Cl)C1 (stereo unspecified)
91 | 834 | CCOc1ccc(S(=O)(=O)NC2CCN(c3ccc(=O)n(CC4CC4)n3)C2)cc1 (stereo unspecified)
